Earlier results in paper PMC6151550, “Inhibitory Effect of Selaginellins from Selaginella tamariscina (Beauv.) Spring against Cytochrome P450 and Uridine 5′-Diphosphoglucuronosyltransferase Isoforms on Human Liver Microsomes” (Molecules : A Journal of Synthetic Chemistry and Natural …, 2017).

Assays:
UGT1A1 = tested on: UGT1A1; parameters: method as in PMID 25216634; conditions: read-out: Ki against UGT1A1-mediated SN-38 glucuronidation; cited from earlier work
CYP2C8 = conditions: cited from earlier work

| SMILES | Ki (UGT1A1) [µM] | IC50 (CYP2C8) [µM] |
| --- | --- | --- |
| CC(C)=CCc1cc2c(cc1O)oc(=O)c1c3ccc(O)cc3oc21 [psoralidin] | 5.8 |  |
| Cc1c(C)c2c(c(C)c1O)CCC(C)(COc1ccc(CC3SC(=O)NC3=O)cc1)O2 (stereo not drawn) [troglitazone] |  | 2.3 |
